According to patent US9011879B2 (priority 2009, dated 2015):

Key:
[1] = test system: sympathetic neurons; conditions: cited from earlier work
[2] = test system: renal arteries; conditions: pig, in vivo
[3] = test system: kidney norepinephrine (NE); design: species or system porcine; conditions: pig, in vivo

Row | Compound | concentration accumulated within neurons in vivo [1] [mM] | perivascular indications of denervation (histology) [2] | average NE level in renal cortex tissue [3] | reduction in renal cortex NE [3] [%]
1 | N=C(N)NCCN1CCCCCCC1 [guanethidine, Guanidine, [2-(hexahydro-1(2H)-azocinyl)ethyl]-] | 0.5 to 1.0 | – | – | –
2 | Guanidine, [2-(hexahydro-1(2H)-azocinyl)ethyl]-, sulfate (1:1) [Guanethidine monosulfate] | – | nerve degeneration characterized by hypervacuolization and eosinophilia | 64 | 86
